Source: patent US20250340538A1, “IMIDAZOLONE DERIVATIVES AS INHIBITORS OF PROTEIN KINASES IN PARTICULAR DYRK1A, CLK1 AND/OR CLK4” (PERHA PHARMACEUTICALS, priority 2021, published 2025)
Read-outs that look alike come from different tables or passages of the source.

Experiments:
Type in all cases: biochemical
[1] = molecular target: T1, CLK2 (Homo sapiens, UniProt P49760); experiment: Radiometric protein kinase assay (33PanQinase Activity Assay), CLK2; settings: read-out: IC50 on CLK2 (most potent CLK2 inhibitors)
T1 construct: GST-fusion or His-tag (not specified per kinase); purchased ProQinase GmbH; host or cells: Sf9 insect cells or E. coli (not specified per kinase)
T1 sequence (P49760 whole entry, the tested form may be a part): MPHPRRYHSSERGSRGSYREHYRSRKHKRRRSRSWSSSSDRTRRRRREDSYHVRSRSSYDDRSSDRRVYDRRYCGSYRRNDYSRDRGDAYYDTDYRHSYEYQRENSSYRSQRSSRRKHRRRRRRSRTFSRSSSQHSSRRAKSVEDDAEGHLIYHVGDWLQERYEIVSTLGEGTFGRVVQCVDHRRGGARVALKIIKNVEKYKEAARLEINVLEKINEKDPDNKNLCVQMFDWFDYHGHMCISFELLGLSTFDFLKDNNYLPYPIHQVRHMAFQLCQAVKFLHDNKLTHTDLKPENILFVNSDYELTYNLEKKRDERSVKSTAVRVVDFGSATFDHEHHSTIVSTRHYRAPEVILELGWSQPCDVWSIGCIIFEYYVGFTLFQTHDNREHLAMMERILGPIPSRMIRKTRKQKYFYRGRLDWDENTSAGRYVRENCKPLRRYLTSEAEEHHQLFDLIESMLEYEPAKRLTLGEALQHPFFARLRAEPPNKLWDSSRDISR
Procedure: (§1) Assays were performed by ProQinase GmbH (Engesserstr. 4, D-79108 Freiburg, Germany. www.proqinase.com). The IC50 profile of all compounds was determined using 12 protein kinases (CDK2/cyclin E, CK1ε, CLK1, 2, 3, 4, DYRK1A, 1B, 2, 3, 4, GSK3β).
(§2) The compounds were provided as […] in 100% DMSO. Prior to testing, the 1 μM stock solutions were subjected to a serial, semi-logarithmic dilution using 100% DMSO as a solvent. […] In the process, 90 μl H2O were added to each well of each compound dilution plate. To minimize potential precipitation, the H2O was added to each plate only a few minutes before the transfer of the compound solutions into the assay plates. The plate was shaken thoroughly, resulting in a compound dilution plate/10% DMSO.
(§3) For the assays (see below), 5 μL solution from each well of the compound dilution plates/10% DMSO were transferred into the assay plates. The final volume of the assay was 50 μL. All compounds were tested at 10 final assay concentrations in the range from 10 μM to 30 nM. The final DMSO concentration in the reaction cocktails was 1% in all cases.
(§4) All protein kinases provided by ProQinase were expressed in Sf9 insect cells or in E. coli as recombinant GST-fusion proteins or His-tagged proteins, either as full-length or enzymatically active fragments. All kinases were produced from human cDNAs and purified by either GSH-affinity chromatography or immobilized metal. Affinity tags were removed from a number of kinases during purification. The purity of the protein kinases was examined by SDS-PAGE/Coomassie staining, the identity was checked by mass spectroscopy.
(§5) A radiometric protein kinase assay (33PanQinase® Activity Assay) was used for measuring the kinase activity of the 12 protein kinases. All kinase assays were performed in 96-well FlashPlates™ from PerkinElmer (Boston, MA, USA) in a 50 μL reaction volume. The reaction cocktail was pipetted in four steps in the following order: • 25 μL of assay buffer (standard buffer/[γ-^33P]-ATP), • 10 μL of ATP solution (in H2O), • 5 μL of test compound (in 10% DMSO), • 10 μL of enzyme/substrate mixture.
(§6) The reaction cocktails were incubated at 30° C. for 60 minutes. The reaction was stopped with 50 μL of 2% (v/v) H3PO4, plates were aspirated and washed two times with 200 μL 0.9% (w/v) NaCl. Incorporation of ^33Pi was determined with a microplate scintillation counter (Microbeta, Wallac). The IC50 values for all compounds were calculated from the dose response curves
(§7) As a parameter for assay quality, the Z′-factor (Zhang et al., J. Biomol. Screen. 2: 67-73, 1999) for the low and high controls of each assay plate (n=8) was used. ProQinase's criterion for repetition of an assay plate is a Z′-factor below 0.4 (Iversen et al., J. Biomol. Screen. 3: 247-252, 2006).

[2] = molecular target: T2, CLK1 (Homo sapiens, UniProt P49759); experiment: Radiometric protein kinase assay (33PanQinase Activity Assay), CLK1; settings: read-out: Potency Class CLK1
T2 construct: GST-fusion or His-tag (not specified per kinase); purchased ProQinase GmbH; host or cells: Sf9 insect cells or E. coli (not specified per kinase)
T2 sequence (P49759 whole entry, the tested form may be a part): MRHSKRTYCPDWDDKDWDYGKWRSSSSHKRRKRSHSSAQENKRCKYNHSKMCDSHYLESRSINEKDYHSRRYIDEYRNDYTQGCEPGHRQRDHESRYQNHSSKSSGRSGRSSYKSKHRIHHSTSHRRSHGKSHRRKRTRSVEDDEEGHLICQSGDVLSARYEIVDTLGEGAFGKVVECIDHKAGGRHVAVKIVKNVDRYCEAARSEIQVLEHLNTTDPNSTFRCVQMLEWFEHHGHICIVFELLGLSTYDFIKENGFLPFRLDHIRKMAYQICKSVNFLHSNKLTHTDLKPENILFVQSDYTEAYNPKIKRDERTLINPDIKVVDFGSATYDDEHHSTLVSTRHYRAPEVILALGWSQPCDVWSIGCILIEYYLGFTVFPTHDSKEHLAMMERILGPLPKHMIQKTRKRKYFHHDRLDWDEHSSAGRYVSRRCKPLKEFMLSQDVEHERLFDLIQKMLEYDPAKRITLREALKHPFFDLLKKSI
Method in brief: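 Kinase activity is measured radiometrically as 33P transfer from [γ-33P]-ATP to substrate by recombinant human enzyme over 60 min at 30 °C. Test compounds span 10 μM to 30 nM (10 points, 1% DMSO), and IC50 values come from the resulting dose-response curves.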

[3] = molecular target: T3, DYRK1A (Homo sapiens, UniProt Q13627); experiment: Radiometric protein kinase assay (33PanQinase Activity Assay), DYRK1A; settings: for IC50: read-out: Potency Class DYRK1A; for Selectivity Class DYRK1A vs. CLK1: ratio of IC50 on CLK1 over IC50 on DYRK1A; for Selectivity Class DYRK1A vs. DYRK1B: ratio of IC50 on DYRK1B over IC50 on DYRK1A
T3 construct: GST-fusion or His-tag (not specified per kinase); purchased ProQinase GmbH; host or cells: Sf9 insect cells or E. coli (not specified per kinase)
Method in brief: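 Recombinant human kinase, expressed in Sf9 or E. coli, in a radiometric [γ-33P]-ATP assay at 30 °C for 60 min. Compounds tested at 10 concentrations from 10 μM to 30 nM, 1% DMSO final. 33Pi incorporation measured by scintillation counting; IC50 from dose-response curves.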

[4] = molecular target: T4, CLK4 (Homo sapiens, UniProt Q9HAZ1); experiment: Radiometric protein kinase assay (33PanQinase Activity Assay), CLK4; settings: read-out: IC50 on CLK4 (most potent CLK4 inhibitors)
T4 construct: GST-fusion or His-tag (not specified per kinase); purchased ProQinase GmbH; host or cells: Sf9 insect cells or E. coli (not specified per kinase)
T4 sequence (Q9HAZ1 whole entry, the tested form may be a part): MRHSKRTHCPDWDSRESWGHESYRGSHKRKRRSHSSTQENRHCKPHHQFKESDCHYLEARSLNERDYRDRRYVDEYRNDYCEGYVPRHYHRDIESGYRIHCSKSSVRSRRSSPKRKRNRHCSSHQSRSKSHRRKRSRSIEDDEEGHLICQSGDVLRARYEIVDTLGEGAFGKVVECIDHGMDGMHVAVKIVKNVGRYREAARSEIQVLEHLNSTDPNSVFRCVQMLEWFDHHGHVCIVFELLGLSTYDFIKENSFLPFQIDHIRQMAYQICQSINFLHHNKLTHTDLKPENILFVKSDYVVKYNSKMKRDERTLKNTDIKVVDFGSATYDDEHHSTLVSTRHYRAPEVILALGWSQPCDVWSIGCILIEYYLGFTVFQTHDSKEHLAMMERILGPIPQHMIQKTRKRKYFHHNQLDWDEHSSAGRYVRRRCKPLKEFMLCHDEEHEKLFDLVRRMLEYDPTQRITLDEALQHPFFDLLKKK
Procedure: as §1, §2, §3, §4, §5, §6, §7

[5] = class by IC50 on CLK1, from dose-response curves
[6] = class by IC50 on DYRK1A, from dose-response curves

Compound	IC50 [1] [nM]	IC50 [2, 5] [nM]	IC50 [3, 6] [nM]	Selectivity Class DYRK1A vs. CLK1 [3]	Selectivity Class DYRK1A vs. DYRK1B [3]	IC50 ([2]; IC50 class A to E) [nM]	IC50 ([3]; IC50 class A to E) [nM]	IC50 [4] [nM]
O=C1NC(NC23CC4CC(CC(C4)C2)C3)=N/C1=C\c1ccc2nccnc2c1 [Compound 17, (4Z)-2-(1-adamantylamino)-4-(quinoxalin-6-ylmethylene)-1H-imidazol-5-one]	≤ 100	25 to 50	10 to 25	II (ratio between 2 and 10 fold)	II (ratio between 2 and 10 fold)			
O=C1NC(N[C@@H]2CCCOC2)=N/C1=C\c1ccc2cnccc2c1 [Compound 67, (4Z)-4-(6-isoquinolylmethylene)-2-[[(3R)-tetrahydropyran-3-yl]amino]-1H-imidazol-5-one]		> 50	> 50	III (ratio between 0.5 and 2 fold)	III (ratio between 0.5 and 2 fold)			
O=C1NC(NC23CC4CC(CC(C4)C2)C3)=N/C1=C\c1ccc2ncncc2c1 [Compound 68, (4Z)-2-(1-adamantylamino)-4-(quinazolin-6-ylmethylene)-1H-imidazol-5-one]		> 50	> 50	III (ratio between 0.5 and 2 fold)	II (ratio between 2 and 10 fold)			
COC[C@H](NC1=N/C(=C\c2ccc3ncccc3n2)C(=O)N1)c1ccccc1 [Compound 71, (4Z)-2-[[(1R)-2-methoxy-1-phenyl-ethyl]amino]-4-(1,5-naphthyridin-2-ylmethylene)-1H-imidazol-5-one]		10 to 25	> 50	IV (ratio between 0.1 and 0.5 fold)	II (ratio between 2 and 10 fold)	10 to 25	> 50	≤ 10
COC[C@H](NC1=N/C(=C\c2ccc3nnccc3c2)C(=O)N1)c1ccccc1 [Compound 72, (4Z)-4-(cinnolin-6-ylmethylene)-2-[[(1R)-2-methoxy-1-phenyl-ethyl]amino]-1H-imidazol-5-one]		> 50	> 50	III (ratio between 0.5 and 2 fold)	III (ratio between 0.5 and 2 fold)			
COC[C@H](NC1=N/C(=C\c2ccc3cnncc3c2)C(=O)N1)c1ccccc1 [Compound 73, (4Z)-2-[[(1R)-2-methoxy-1-phenyl-ethyl]amino]-4-(phthalazin-6-ylmethylene)-1H-imidazol-5-one]		> 50	> 50	III (ratio between 0.5 and 2 fold)	III (ratio between 0.5 and 2 fold)			
O=C1NC(NC2CCCCC2)=N/C1=C\c1ccc2cnccc2c1 [Compound 75, (4Z)-2-(Cyclohexylamino)-4-(6-isoquinolylmethylene)-1H-imidazol-5-one]		> 50	> 50	III (ratio between 0.5 and 2 fold)	II (ratio between 2 and 10 fold)			
O=C1NC(NC2CCCCC2)=N/C1=C\c1ccc2ncncc2c1 [Compound 76, (4Z)-2-(cyclohexylamino)-4-(quinazolin-6-ylmethylene)-1H-imidazol-5-one]		> 50	> 50	III (ratio between 0.5 and 2 fold)	II (ratio between 2 and 10 fold)			
O=C1NC(NC2CCCCCC2)=N/C1=C\c1ccc2ncncc2c1 [Compound 77, (4Z)-2-(cycloheptylamino)-4-(quinazolin-6-ylmethylene)-1H-imidazol-5-one]		> 50	> 50	II (ratio between 2 and 10 fold)	II (ratio between 2 and 10 fold)			

Further lines, results first:

IC50 [1] [nM]	IC50 [2, 5] [nM]	IC50 [3, 6] [nM]	Selectivity Class DYRK1A vs. CLK1 [3]	Selectivity Class DYRK1A vs. DYRK1B [3]	IC50 ([2]; IC50 class A to E) [nM]	IC50 ([3]; IC50 class A to E) [nM]	IC50 [4] [nM]	Compound
	> 50	> 50	II (ratio between 2 and 10 fold)	II (ratio between 2 and 10 fold)				COC[C@@H](CC(C)C)NC1=N/C(=C\c2ccc3ncncc3c2)C(=O)N1 [Compound 78, (4Z)-2-[[(1R)-1-(methoxymethyl)-3-methyl-butyl]amino]-4-(quinazolin-6-ylmethylene)-1H-imidazol-5-one]
	> 50	> 50	III (ratio between 0.5 and 2 fold)	III (ratio between 0.5 and 2 fold)				CN1C(=O)/C(=C/c2ccc3nccnc3c2)N=C1NC1CCCCC1 [Compound 82, (5Z)-2-(Cyclohexylamino)-3-methyl-5-(quinoxalin-6-ylmethylene)imidazol-4-one]
	> 50	> 50	III (ratio between 0.5 and 2 fold)	III (ratio between 0.5 and 2 fold)				CN1C(=O)/C(=C/c2ccc3nccnc3c2)N=C1NC1CCCCCC1 [Compound 83, (5Z)-2-(Cycloheptylamino)-3-methyl-5-(quinoxalin-6-ylmethylene)imidazol-4-one]
	> 50	> 50	III (ratio between 0.5 and 2 fold)	III (ratio between 0.5 and 2 fold)				CN1C(=O)/C(=C/c2ccc3ncccc3c2)N=C1NC1CCCCC1 [Compound 84, (5Z)-2-(Cyclohexylamino)-3-methyl-5-(quinolin-6-ylmethylene)imidazol-4-one]
	> 50	> 50	IV (ratio between 0.1 and 0.5 fold)	III (ratio between 0.5 and 2 fold)				CN1C(=O)/C(=C/c2ccc3ncccc3c2)N=C1NC1CCCCCC1 [Compound 85, (5Z)-2-(Cycloheptylamino)-3-methyl-5-(quinolin-6-ylmethylene)imidazol-4-one]
	> 50	> 50	III (ratio between 0.5 and 2 fold)	IV (ratio between 0.1 and 0.5 fold)				CN1C(=O)/C(=C/c2ccc3cnccc3c2)N=C1NC1CCCCC1 [Compound 86, (5Z)-2-(Cyclohexylamino)-3-methyl-5-(isoquinolin-6-ylmethylene)imidazol-4-one]
	> 50	> 50	III (ratio between 0.5 and 2 fold)	III (ratio between 0.5 and 2 fold)				CN1C(=O)/C(=C/c2ccc3ncncc3c2)N=C1NC1CCCCC1 [Compound 88, (5Z)-2-(Cyclohexylamino)-3-methyl-5-(quinazolin-6-ylmethylene)imidazol-4-one]
	> 50	> 50	III (ratio between 0.5 and 2 fold)	III (ratio between 0.5 and 2 fold)				CN1C(=O)/C(=C/c2ccc3ncncc3c2)N=C1NC1CCCCCC1 [Compound 89, (5Z)-2-(Cycloheptylamino)-3-methyl-5-(quinazolin-6-ylmethylene)imidazol-4-one]
